In US20240398821A1, “FLAVONOID DERIVATIVES WITH GABAA RECEPTOR ACTIVITY AND METHODS OF USE” (RUTGERS, THE STATE UNIVERSITY OF NEW JERSEY, priority 2021, published 2024):

Columns and labels:
GABAA receptor = assay: Preliminary classification of GABAAR modulation from electrophysiology against 4 GABAA subtypes; type: cell-based; conditions: from the four subtype results
Text: As an assessment for potential anxiolytic activity, compounds were screened for in vitro GABAA receptor activity utilizing electrophysiology studies. This is a well-established method of assessing activity of GABAA receptor positive allosteric modulators (PAMs) with known anxiolytic activity. The link between anxiolytic and sedative activity associated with α1/2/3βγ GABAAR subtypes is also well-established by previous studies. and there is a well-established history of clinical efficacy, utility, and risks associated with the use of full GABAAR PAMs [i.e. benzodiazepines (BZDs)] in the treatment of anxiety and seizure disorders.
(§1) To evaluate GABAA receptor activity, compounds were evaluated with electrophysiology studies of against 4 GABAA subtypes (GABAA α1β2γ2L, α2θ3γ2L, α5θ3γ2L and α4θ3δ) in positive allosteric modulator (PAM) mode using the SyncroPatch automated platform at room temperature. A 6-point concentration-response curve of each test compound (10, 1, 0.1, 0.01, 0.001, or 0.0001 μM in DMSO). The rapid addition protocol was used, in which compound is rapidly applied and then washed off from the cell. 0.3% DMSO was used as negative control.
The fold increase is generated using the following equation, (Icomp/Icontrol)−1, where Icomp is the current amplitude in the presence of the compound and Icontrol is the current amplitude in the presence of agonist alone. This builds an EC50 concentration-response curve, where 0 represents no PAM activity and >0 represents PAM activity. If a “bell-shape curve” is observed at the higher concentrations, showing a reduction in activity in comparison to previous concentrations, then to allow for a more accurate curve fit, these concentrations are removed from the graphs where necessary and noted in the compound table. The % Emax relative to Allopregnanolone is generated using the following equation, • [(IMaxComp/IAveMaxCtrl)*100], where IMaxComp is the individual maximum fold increase in current for each compound and IAveMaxCtrl is the average maximum fold increase generated in the presence of the control, allopregnanolone.

GABAA α1β2γ2L = biological target: T1, GABAA α1β2γ2L (Homo sapiens, UniProt P14867+P18507+P47870); assay: SyncroPatch automated patch-clamp electrophysiology, PAM mode; type: cell-based; conditions: for Potency, α1βy, % in brackets: bracketed % beside EC50/IC50
T1 construct: expressed in transfected cells
Procedure: (§2) To evaluate GABAA receptor activity, compounds were evaluated with electrophysiology studies of against 4 GABAA subtypes (GABAA α1β2γ2L, α2θ3γ2L, α5θ3γ2L and α4θ3δ) in positive allosteric modulator (PAM) mode using the SyncroPatch automated platform at room temperature. […] The rapid addition protocol was used, in which compound is rapidly applied and then washed off from the cell. 0.3% DMSO was used as negative control.
(§3) Positive control: 5-point concentration-response curve of allopregnanolone ([…]).
(§4) Negative control: 0.3% DMSO
(§5) Each compound is tested across the plate with a single concentration per cell. A minimum of 2 wells are obtained per each concentration.
(§6) Powder stocks and DMSO stocks are stored at room temperature (in the dark). The powder stocks are diluted to 3 mM in 100% DMSO on the day of experiment.
(§7) SyncroPatch specific solutions are used throughout the assay. DMSO remains constant at 0.3% in the external solution throughout the assay.
(§8) The rapid addition protocol is used, in which compound is rapidly applied and then washed off from the cell. […] After a further wash step, maximum GABA (10 mM) is applied.
(§9) The voltage protocol generation and data collection are performed with PatchController384 V1.9.0 and Data Controller V1.9.0.
(§10) The fold increase is generated using the following equation, (Icomp/Icontrol)−1, where Icomp is the current amplitude in the presence of the compound and Icontrol is the current amplitude in the presence of agonist alone. […] The % Emax relative to Allopregnanolone is generated using the following equation, • [(IMaxComp/IAveMaxCtrl)*100], where IMaxComp is the individual maximum fold increase in current for each compound and IAveMaxCtrl is the average maximum fold increase generated in the presence of the control, allopregnanolone.
(§11) After a further wash step, maximum GABA (10 mM) was applied. Allopregnanolone was utilized as a positive control.

GABAA α4θ3δ = biological target: T2, GABAA α4θ3δ (Homo sapiens, UniProt O14764+P28472+P48169); assay: as above; type: cell-based; conditions: for Potency, α4βδ (also printed α4βy), % in brackets: bracketed % beside EC50/IC50
T2 construct: expressed in transfected cells
Procedure: as §2, §3, §4, §5, §6, §7, §8, §9, §10, §11

GABAA α5θ3γ2L = biological target: T3, GABAA α5θ3γ2L (Homo sapiens, UniProt P18507+P28472+P31644); assay: as above; type: cell-based
T3 construct: expressed in transfected cells
Procedure: as §1
(§12) Test compounds: 6-point concentration-response curve of each test compound (10, 1, 0.1, 0.01, 0.001, 0.0001 μM in DMO).
as §3, §4, §5, §6, §7
(§13) The rapid addition protocol is used, in which compound is rapidly applied and then washed off from the cell. To test for PAM activity, the agonist GABA EC10-20 is applied three times (with wash steps in-between) as a control and to show activation reproducibility, followed by a 1 to 2 minute pre-incubation of client compound and then re-application of GABA EC10-20 in the presence of client compound. After a further wash step, maximum GABA (10 mM) is applied.
(§14) Automated patch clamp-recordings are performed using the SyncroPatch 384i. The voltage protocol generation and data collection are performed with PatchController384 V1.9.0 and Data Controller V1.9.0.
as §10, with “alone. This builds an EC50 concentration-response curve, where 0 represents no PAM activity and >0 represents PAM activity.” for “alone.”
(§15) To test for PAM activity, the agonist GABA EC 10-20 was applied three times (with wash steps in-between) as a control and to show activation reproducibility, followed by a 1 to 2 minutes pre-incubation of client compound and then re-application of GABA EC 10-20 in the presence of client compound. After a further wash step, maximum GABA (10 mM) was applied. Allopregnanolone was utilized as a positive control. FIGS. 5A and 5B show for dose response of EC2-118 in comparison to that of allopregnanolone (positive control).

GABAA α2θ3γ2L = biological target: T4, GABAA α2θ3γ2L (Homo sapiens, UniProt P18507+P28472+P47869); assay: as above; type: cell-based; conditions: for Potency, α2βy, *EC50 / EC50: PAM mode, GABA EC10-20, 6-point curve up to 10 μM, EC50 called extrapolated; for EC50: read-out: Potency, α2βy, *EC50; for Potency, α2βy, % in brackets: bracketed % beside EC50/IC50
T4 construct: expressed in transfected cells
Procedure: as §1, §12, §3, §4, §5, §6, §7, §13, §14
as §10, with “alone. This builds an EC50 concentration-response curve, where 0 represents no PAM activity and >0 represents PAM activity.” for “alone.”
as §15

anxiety = assay: Open field test (OFT) and elevated plus maze (EPM), IP administration; type: in vivo, rats
Procedure: FIG. 7 is a representation of rat movements during an open field test. Increased time in the open arms signifies anti-anxiety activity. […] The purple lines represent the motion of the rat.
In vivo studies in rats were conducted in the Bello laboratory as preliminary screening for activity of EC2-118. Male and female rats were exposed to an open field test (OFT) and elevated plus maze (EPM) 7 days apart (Kshatriya et al., 2020). Each group (n=8/group, […]) received IP injection 30 min prior to IP dosing of EC2-118 or vehicle control. We performed OFT and EPM in 52 adult SD rats (26 male/26 female). The groups were as follow vehicle (0.9% Saline, 4% Tween 80, and 4% DMSO; n=9 males; n=10 females), 3.95 mg/kg (n=10 males; n=8 females), 12.5 mg/kg (n=7 males, females n=8).

loss-of-righting-reflex = assay: Loss-of-righting-reflex (LORR), alone and with alcohol; type: in vivo; conditions: rats
Procedure: Rats were given EC2-118 (3.95 mg/kg IP) and alcohol (3 g/kg) and assessed for duration of loss-of-righting-reflex (LORR). […] The effects of EC2-118 (12.5 mg/kg IP) on alcohol-induced LORR were not determined.

[1] = PAM mode, GABA EC10-20, 6-point curve up to 10 μM
[2] = PAM mode, GABA EC10-20, 6-point curve up to 10 μM, EC50 called extrapolated

T1 sequence (P14867 28-456): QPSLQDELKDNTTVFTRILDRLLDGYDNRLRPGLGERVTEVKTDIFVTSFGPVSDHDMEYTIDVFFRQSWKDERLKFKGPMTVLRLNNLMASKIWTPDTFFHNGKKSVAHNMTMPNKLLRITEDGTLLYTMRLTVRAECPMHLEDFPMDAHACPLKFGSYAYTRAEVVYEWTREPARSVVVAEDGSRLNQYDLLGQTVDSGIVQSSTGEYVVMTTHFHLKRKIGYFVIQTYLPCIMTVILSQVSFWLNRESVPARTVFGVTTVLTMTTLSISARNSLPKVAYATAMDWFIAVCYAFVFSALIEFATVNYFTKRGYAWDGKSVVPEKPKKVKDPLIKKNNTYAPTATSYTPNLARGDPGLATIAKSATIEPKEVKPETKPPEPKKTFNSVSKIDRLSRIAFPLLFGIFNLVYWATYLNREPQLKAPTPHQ
T1 sequence (P47870 25-512 limits assumed): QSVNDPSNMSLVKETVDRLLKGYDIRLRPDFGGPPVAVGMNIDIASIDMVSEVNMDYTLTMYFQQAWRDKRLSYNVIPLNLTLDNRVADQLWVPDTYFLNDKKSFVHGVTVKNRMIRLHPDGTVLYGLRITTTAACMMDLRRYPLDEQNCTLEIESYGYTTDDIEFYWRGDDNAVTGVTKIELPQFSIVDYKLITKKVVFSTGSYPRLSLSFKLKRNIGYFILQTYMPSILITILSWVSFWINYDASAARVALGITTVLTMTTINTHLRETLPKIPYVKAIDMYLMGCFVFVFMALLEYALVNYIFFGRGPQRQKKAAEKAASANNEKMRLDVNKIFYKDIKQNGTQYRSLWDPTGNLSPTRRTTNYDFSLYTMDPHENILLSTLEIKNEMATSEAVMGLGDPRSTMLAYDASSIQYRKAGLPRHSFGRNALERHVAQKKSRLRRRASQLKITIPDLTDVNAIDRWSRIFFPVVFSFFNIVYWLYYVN
T1 sequence (P18507 40-475): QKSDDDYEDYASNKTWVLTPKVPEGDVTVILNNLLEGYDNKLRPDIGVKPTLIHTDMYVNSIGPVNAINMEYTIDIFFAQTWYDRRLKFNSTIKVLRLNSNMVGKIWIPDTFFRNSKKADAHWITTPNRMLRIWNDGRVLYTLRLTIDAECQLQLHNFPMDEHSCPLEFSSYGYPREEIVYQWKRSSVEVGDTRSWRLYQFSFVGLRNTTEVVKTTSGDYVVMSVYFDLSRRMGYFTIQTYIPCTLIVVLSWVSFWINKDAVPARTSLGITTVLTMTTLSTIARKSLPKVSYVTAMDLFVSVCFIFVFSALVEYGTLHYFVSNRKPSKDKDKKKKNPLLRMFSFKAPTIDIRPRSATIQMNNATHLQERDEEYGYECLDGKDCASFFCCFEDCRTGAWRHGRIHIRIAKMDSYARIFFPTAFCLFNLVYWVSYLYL
T4 sequence (P47869 29-451): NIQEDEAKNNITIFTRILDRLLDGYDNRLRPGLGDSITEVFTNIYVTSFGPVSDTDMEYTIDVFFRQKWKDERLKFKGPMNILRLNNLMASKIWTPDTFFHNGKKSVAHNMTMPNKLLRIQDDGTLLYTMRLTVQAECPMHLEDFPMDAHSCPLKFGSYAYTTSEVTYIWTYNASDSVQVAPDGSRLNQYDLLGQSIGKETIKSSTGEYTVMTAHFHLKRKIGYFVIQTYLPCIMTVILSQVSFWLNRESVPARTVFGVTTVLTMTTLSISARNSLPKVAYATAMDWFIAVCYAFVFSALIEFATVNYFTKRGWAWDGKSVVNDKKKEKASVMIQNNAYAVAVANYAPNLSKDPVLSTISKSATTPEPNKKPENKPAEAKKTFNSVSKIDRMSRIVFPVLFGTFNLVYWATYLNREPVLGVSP
T4 sequence (P28472 26-473): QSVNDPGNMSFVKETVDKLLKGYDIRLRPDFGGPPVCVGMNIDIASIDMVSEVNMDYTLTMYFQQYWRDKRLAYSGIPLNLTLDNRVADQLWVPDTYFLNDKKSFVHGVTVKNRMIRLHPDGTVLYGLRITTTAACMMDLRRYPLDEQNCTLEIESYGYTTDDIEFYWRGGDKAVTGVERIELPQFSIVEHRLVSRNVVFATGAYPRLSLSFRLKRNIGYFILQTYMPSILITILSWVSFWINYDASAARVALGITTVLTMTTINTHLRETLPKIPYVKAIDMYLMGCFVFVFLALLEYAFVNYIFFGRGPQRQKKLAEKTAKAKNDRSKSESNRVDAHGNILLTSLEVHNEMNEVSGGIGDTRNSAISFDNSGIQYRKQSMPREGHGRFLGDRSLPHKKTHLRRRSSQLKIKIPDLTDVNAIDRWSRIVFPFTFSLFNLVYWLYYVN
T4 sequence (P18507 40-475): as the sequence (P18507 40-475) above
T3 sequence (P31644 32-462): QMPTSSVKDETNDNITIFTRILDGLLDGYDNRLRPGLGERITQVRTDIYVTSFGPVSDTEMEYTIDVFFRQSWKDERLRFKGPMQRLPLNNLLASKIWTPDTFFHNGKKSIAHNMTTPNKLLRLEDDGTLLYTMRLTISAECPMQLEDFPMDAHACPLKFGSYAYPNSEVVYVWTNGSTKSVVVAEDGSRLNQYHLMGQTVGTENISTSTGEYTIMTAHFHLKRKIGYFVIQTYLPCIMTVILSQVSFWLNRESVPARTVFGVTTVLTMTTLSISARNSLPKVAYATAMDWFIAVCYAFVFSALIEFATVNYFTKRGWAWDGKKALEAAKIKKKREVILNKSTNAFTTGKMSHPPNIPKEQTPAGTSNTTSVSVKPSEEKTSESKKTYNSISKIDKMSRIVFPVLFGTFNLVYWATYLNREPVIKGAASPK
T3 sequence (P28472 26-473): as the sequence (P28472 26-473) above
T3 sequence (P18507 40-475): as the sequence (P18507 40-475) above
T2 sequence (P48169 36-554): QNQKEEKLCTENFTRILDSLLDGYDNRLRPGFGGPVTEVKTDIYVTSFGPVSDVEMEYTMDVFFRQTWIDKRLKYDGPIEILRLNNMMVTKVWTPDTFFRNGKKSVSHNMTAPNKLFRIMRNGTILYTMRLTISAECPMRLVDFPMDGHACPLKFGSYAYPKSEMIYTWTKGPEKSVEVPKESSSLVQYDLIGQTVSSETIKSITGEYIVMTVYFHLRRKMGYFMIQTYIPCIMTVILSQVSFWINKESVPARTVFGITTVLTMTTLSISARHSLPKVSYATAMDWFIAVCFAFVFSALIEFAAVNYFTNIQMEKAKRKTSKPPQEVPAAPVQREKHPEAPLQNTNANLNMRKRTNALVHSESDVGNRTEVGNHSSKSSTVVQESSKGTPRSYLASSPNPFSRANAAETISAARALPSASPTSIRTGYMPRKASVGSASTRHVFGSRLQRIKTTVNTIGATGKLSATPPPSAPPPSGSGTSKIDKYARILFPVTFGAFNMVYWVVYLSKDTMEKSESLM
T2 sequence (P28472 26-473): as the sequence (P28472 26-473) above
T2 sequence (O14764 17-452 limits assumed): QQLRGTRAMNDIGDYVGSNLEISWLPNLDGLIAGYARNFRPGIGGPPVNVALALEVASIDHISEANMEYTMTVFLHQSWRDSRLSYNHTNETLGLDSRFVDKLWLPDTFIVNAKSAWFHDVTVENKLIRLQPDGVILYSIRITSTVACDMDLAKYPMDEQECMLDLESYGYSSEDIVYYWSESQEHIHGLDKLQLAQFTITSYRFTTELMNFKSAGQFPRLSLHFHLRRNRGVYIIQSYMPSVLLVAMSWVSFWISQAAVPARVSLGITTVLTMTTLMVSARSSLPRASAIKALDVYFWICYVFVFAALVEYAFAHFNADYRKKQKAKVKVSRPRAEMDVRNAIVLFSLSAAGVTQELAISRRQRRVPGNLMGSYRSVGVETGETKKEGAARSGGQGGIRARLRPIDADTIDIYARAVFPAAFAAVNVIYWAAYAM

SMILES	Preliminary Classification of type of GABAAR modulation (GABAA receptor)	IC50 (GABAA α1β2γ2L) [µM]	Potency, α1βy, % in brackets (GABAA α1β2γ2L)	IC50 (GABAA α4θ3δ) [µM]	Potency, α4βδ (also printed α4βy), % in brackets (GABAA α4θ3δ)	Potency, α5βy, *EC50 (GABAA α5θ3γ2L; [1])	Potency, α2βy, *EC50 (GABAA α2θ3γ2L)	Potency, α1βy, *EC50 (GABAA α1β2γ2L; [2])	Potency, α4βδ (also printed α4βy), *EC50 (GABAA α4θ3δ; [1])	EC50 (GABAA α5θ3γ2L; PAM mode, GABA EC10-20, 6-point curve up to 10 μM, read-out: Potency, α5βy, *EC50) [µM]	Potency, α5βy, % in brackets (GABAA α5θ3γ2L; bracketed % beside EC50/IC50)	EC50 (GABAA α4θ3δ; PAM mode, GABA EC10-20, 6-point curve up to 10 μM, read-out: Potency, α4βδ (also printed α4βy), *EC50) [µM]	EC50 (GABAA α2θ3γ2L) [µM]	Potency, α2βy, % in brackets (GABAA α2θ3γ2L)	EC50 (GABAA α1β2γ2L; PAM mode, GABA EC10-20, 6-point curve up to 10 μM, EC50 called extrapolated, read-out: Potency, α1βy, *EC50) [µM]	Anxiolytic effect in OFT and EPM vs vehicle control (anxiety; 3.95 mg/kg IP, male and female SD rats, two-way ANOVA)	Effect in the open field test (OFT) (anxiety; 12.5 mg/kg IP, rats)	Lethargy (observation) (anxiety; 12.5 mg/kg IP, rats)	Impact on alcohol-induced LORR (duration) (loss-of-righting-reflex; 3.95 mg/kg IP with alcohol 3 g/kg)	Induction of LORR by compound alone (loss-of-righting-reflex; 3.95 mg/kg, 12.95 IP)
O=c1cc(-c2cccc([N+](=O)[O-])c2)oc2ccc(Br)cc12 [6-bromo-3′-nitroflavone, reference compound]	Partial α1 NAM	0.0059	−21%	> 10	−30%	N.R.	N.R.													
O=C1c2cc(Br)ccc2OC(c2ccccc2)C1(CO)CO (stereo not drawn) [EC2-52, 6-bromo-3,3-bis(hydroxymethyl)-2-phenylchroman-4-one]	Partial α5 GABAAR PAM						N.R.	N.R.	N.R.	1.92	+22%									
O=C1c2ccccc2OC(c2cccc([N+](=O)[O-])c2)C1(CO)CO (stereo not drawn) [EC2-104, 3,3-bis(hydroxymethyl)-2-(3-nitrophenyl)chroman-4-one]	Partial α2 GABAAR PAM				+30%	N.R.		N.R.				> 10	11.8	+28%						
O=C1NC(c2cccc([N+](=O)[O-])c2)Nc2ccc(Br)cc21 (stereo not drawn) [EC2-117, 6-bromo-2-(3-nitrophenyl)-2,3-dihydroquinazolin-4(1H)-one]	Not active					α1 βy (N.R.) α2βy (N.R.) α5βy (N.R.) α4ßy (N.R.)	α1 βy (N.R.) α2βy (N.R.) α5βy (N.R.) α4ßy (N.R.)	α1 βy (N.R.) α2βy (N.R.) α5βy (N.R.) α4ßy (N.R.)	α1 βy (N.R.) α2βy (N.R.) α5βy (N.R.) α4ßy (N.R.)											
O=C1NC(c2cccc([N+](=O)[O-])c2)Oc2ccc(Br)cc21 (stereo not drawn) [EC2-118, 6-bromo-2-(3-nitrophenyl)-2,3-dihydro-4H-benzo[e][1,3]oxazin-4-one]	Partial α1/2 GABAAR PAM		+29%			N.R.			N.R.				0.125	+26%	0.136	significant differences between 3.95 mg/kg dose and vehicle control	did not exhibit a significant effect	increased lethargy	did not have a significant impact on alcohol-induced LORR	did not induce an LORR
O=C1c2cc(Br)ccc2OC(c2cccc([N+](=O)[O-])c2)C1(CO)CO (stereo not drawn) [EC2-124]	Not Active					α1ßy (N.R.) α2βy (N.R.) α5βy (N.R.) α4βy (N.R.)	α1ßy (N.R.) α2βy (N.R.) α5βy (N.R.) α4βy (N.R.)	α1ßy (N.R.) α2βy (N.R.) α5βy (N.R.) α4βy (N.R.)	α1ßy (N.R.) α2βy (N.R.) α5βy (N.R.) α4βy (N.R.)											
